Source: US4153688A, “Trifluoromethylated oligopeptides” (Delalande S.A., priority 1977, dated 1979)
Structures can show the parent of a compound that is named as a salt. Where two headings read alike, the source gives them in different places. Square brackets hold non-standard residues; d marks the D form. Peptide text beside a SMILES is read from it. * marks the point of attachment. pNA = O=[N+]([O-])c1ccc(N*)cc1; 4Abz = Nc1ccc(C(=O)O)cc1; Tfa = O=C(C(F)(F)F)*; NHPh = c1ccc(N*)cc1

Key:
[1] = biological target: T1, porcine pancreatic elastase (Sus scrofa, UniProt P00772); test: Inhibition constant KI (Dixon method) on pancreatic elastase, hydrolysis of succinyl-tri-L-alanine-paranitroanilide; format: biochemical; settings: 25° C., TRIS 0.2 M buffer, pH 8; absence of any organic solvent; read-out: K T^ (a) pancreatic
T1 sequence (P00772 27-266): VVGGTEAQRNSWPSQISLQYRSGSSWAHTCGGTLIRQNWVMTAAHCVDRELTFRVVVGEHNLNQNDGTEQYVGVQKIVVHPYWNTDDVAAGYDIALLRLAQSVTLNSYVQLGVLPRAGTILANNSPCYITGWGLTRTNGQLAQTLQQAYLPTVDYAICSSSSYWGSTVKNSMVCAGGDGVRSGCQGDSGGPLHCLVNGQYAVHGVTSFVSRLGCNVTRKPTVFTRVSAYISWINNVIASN
Text: (§1) This latter was purified according to the Travis method (Baugh, R. J. and Travis, J. (1976), Biochemistry, 15, 4, 836). The method of study used is the conventional method of Dixon (Dixon, M., (1953), Biochemical Journal, 55, 1970) for measuring the inhibition constants KI of the compounds of the invention with regard to the hydrolysis reactions of the succinyl-tri-L-alanine-paranitroanilide catalysed by the two above elastases (Bieth J., Spiess B. and Wermuth C. G. (1974) Biochemical Medicine, 11, 350). In certain cases (leucocytal elastase) the inhibitory power of the compounds studied was measured by means of the I50 concentration of these compounds inducing 50% inhibition of the hydrolysis of the succinyl-tri-alanine-paranitroanilide at a 10^-3 M concentration catalysed by the enzyme. […] All the measurements were made at 25° C. in a 0.2 Molar buffer solution of tri-hydroxymethyl-aminomethane at pH 8.
(§2) Table E below lists the results obtained for the compounds of formula (I) as well as the reference compounds (A), acetyl-L-prolyl-L-alanyl-L-prolyl-L-alaninal, for the pancreatic elastase (Thompson, R. C., Biochemistry (1973), 17, 1, 47) and (B), oleic acid, for the leucocytal elastase (Ashe, B. M. and Zimmerman, M. (1977), Biochem. Biophys. Res. Comm., 75, 194).

[2] = biological target: T2, leucocytal elastase (Homo sapiens, UniProt P08246); test: Inhibition constant KI (Dixon method) on leucocytal elastase, hydrolysis of succinyl-tri-L-alanine-paranitroanilide; format: biochemical; settings: 25° C., TRIS 0.2 M buffer, pH 8; absence of any organic solvent; read-out: K T^ (a) leucocytal
T2 construct: This latter was purified according to the Travis method; from tissue
T2 sequence (P08246 30-267): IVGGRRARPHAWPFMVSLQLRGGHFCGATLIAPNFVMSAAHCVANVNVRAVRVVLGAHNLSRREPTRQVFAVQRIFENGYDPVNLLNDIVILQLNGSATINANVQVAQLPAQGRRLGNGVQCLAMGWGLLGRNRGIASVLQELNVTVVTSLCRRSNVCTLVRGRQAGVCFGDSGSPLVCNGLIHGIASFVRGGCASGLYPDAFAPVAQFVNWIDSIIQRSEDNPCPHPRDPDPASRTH
Text: as §1, §2

[3] = biological target: T2, leucocytal elastase; test: I50 on leucocytal elastase, hydrolysis of succinyl-tri-alanine-paranitroanilide at 10^-3 M; format: biochemical; settings: 25° C., TRIS 0.2 M buffer, pH 8; substrate 10^-3 M; in the presence of 50 % dimethylformamide (footnote); read-out: T 50^ (b) leucocytal
Text: as §1

[4] = biological target: T2, leucocytal elastase; settings: reference compound, Ashe and Zimmerman (1977); read-out: K T^ (a) leucocytal; cited from earlier work
[5] = test system: mice; test: Intravenous toxicity on mice; format: in vivo; settings: intravenously, 20, 40 and 80 mg/kg, solution in physiological serum containing 10% DMF
Method: Furthermore, the toxicity of the compounds of the invention were studied intravenously on mice. More exactly, these compounds were tested in the form of a solution in physiological serum containing 10% DMF.
It is to be noted that it was not possible to use doses higher than those indicated above, because of the solubility limit of compound 3.

[6] = biological target: T1, porcine pancreatic elastase; settings: reference compound, Thompson, Biochemistry (1973); read-out: K T^ (a) pancreatic; cited from earlier work

Row | Structure (SMILES) | Ki [1] [nM] | Ki [2] [nM] | IC50 [3] [nM] | Ki [4] [nM] | mortality [5] | Ki [6] [nM]
1 | C[C@H](NC(=O)[C@H](CCCCN)NC(=O)C(F)(F)F)C(=O)Nc1ccccc1 [compound 11] (Tfa-Lys-Ala-NHPh) | 40 | 44000 | 150000 |  |  | 
2 | C[C@H](NC(=O)[C@H](C)NC(=O)C(F)(F)F)C(=O)Nc1cccc([N+](=O)[O-])c1 [compound 4] | 380 |  | 150000 |  |  | 
3 | C[C@H](NC(=O)[C@H](C)NC(=O)C(F)(F)F)C(=O)Nc1ccc(C(F)(F)F)cc1 [compound 5] | 90 |  | 56000 |  |  | 
4 | CC(C)c1ccc(NC(=O)[C@H](C)NC(=O)[C@H](CCCCN)NC(=O)C(F)(F)F)cc1 [compound 14] | 50 | 700 | 5700 |  |  | 
5 | Cc1ccc(NC(=O)[C@H](C)NC(=O)[C@H](CCCCN)NC(=O)C(F)(F)F)cc1 [compound 13] | 30 | 14000 | 50000 |  |  | 
6 | CC(C)c1ccc(NC(=O)[C@H](C)NC(=O)[C@H](C)NC(=O)C(F)(F)F)cc1 [compound 8] | 550 |  | 12000 |  |  | 
7 | CC(NC(=O)C(F)(F)F)C(=O)NC(C(=O)Nc1ccccc1)C(F)(F)F (mixture of isomers) [compound 17] | 270 |  | 400000 |  |  | 
8 | CC(=O)c1ccc(NC(=O)[C@H](C)NC(=O)[C@H](CCCCN)NC(=O)C(F)(F)F)cc1 [compound 16] | 32 | 2500 | 9000 |  |  | 
9 | COc1ccc(NC(=O)[C@H](C)NC(=O)[C@H](C)NC(=O)C(F)(F)F)cc1 [compound 7] | 290 |  | 30000 |  |  | 
10 | C[C@H](NC(=O)[C@H](C)NC(=O)C(F)(F)F)C(=O)Nc1cccc(C(F)(F)F)c1 [compound 6] | 800 |  | 120000 |  |  | 
11 | C[C@H](NC(=O)[C@H](C)NC(=O)C(F)(F)F)C(=O)Nc1ccc(Cl)cc1 [compound 2] | 110 |  | 100000 |  |  | 
12 | CCCCCCCC/C=C\CCCCCCCC(=O)O [B, oleic acid] |  |  |  | 9000 |  | 
13 | C[C@H](NC(=O)[C@H](C)NC(=O)C(F)(F)F)C(=O)Nc1ccc([N+](=O)[O-])cc1 [Code number 3, N-trifluoroacetyl-L-alanyl-L-alanyl-p-nitroanilide] (Tfa-Ala-Ala-pNA) | 120 |  | 78000 |  | no case of mortality was observed | 
14 | C[C@H](NC(=O)[C@H](C)NC(=O)C(F)(F)F)C(=O)Nc1ccccc1 [compound 1] (Tfa-Ala-Ala-NHPh) | 250 |  | 250000 |  |  | 
15 | C[C@H](NC(=O)C(F)(F)F)C(=O)N[C@@H](CCCCN)C(=O)Nc1ccc(C(F)(F)F)cc1 [compound 19] | 400 |  | 150000 |  |  | 
16 | C[C@H](NC(=O)[C@H](C)NC(=O)C(F)(F)F)C(=O)Nc1ccc(C(=O)O)cc1 [compound 10] (Tfa-Ala-Ala-[4Abz]-OH) | 200 |  | 470000 |  |  | 
17 | C[C@H](NC(=O)[C@H](C)NC(=O)C(F)(F)F)C(=O)Nc1ccc(C#N)cc1 [compound 9] | 110 |  | 100000 |  |  | 
18 | CC(=O)N1CCC[C@H]1C(=O)N[C@@H](C)C(=O)N1CCC[C@H]1C(=O)N[C@@H](C)C=O [A, acetyl-L-prolyl-L-alanyl-L-prolyl-L-alaninal] (Ac-PAPA-aldehyde) |  |  |  |  |  | 800
19 | C[C@H](NC(=O)[C@H](CCCCN)NC(=O)C(F)(F)F)C(=O)Nc1ccc(C(F)(F)F)cc1 [compound 12] | 25 | 3000 | 35000 |  |  | 
